Experimental data published in US11518760B2 (Liverpool School of Tropical Medicine, priority 2017, dated 2022).

Tested on: C6/36 Aedes albopictus cell line infected with Wolbachia pipientis (Wolbachia strain wAlbB)
Experiment: In vitro insect cell line assay (anti-Wolbachia screen, SYTO 11 high content imaging)
Format: cell-based
Settings: 168 h; C6/36 Aedes albopictus cells infected with Wolbachia pipientis wAlbB, 7 days incubation, SYTO 11 imaging; read-out: In vitro anti-Wolbachia activity
Procedure: A C6/36 Aedes albopictus cell line infected with Wolbachia pipientis (Wolbachia strain wAlbB) derived from Aa23 A. albopictus cell line (O'Neill et al., 1997; Insect Mol Biol; Turner et al., (2006) J. Immunol. 7:1240-1249) was used to screen compounds. Cells were cultured in Leibovitz's L15+L-glutamine supplemented with heat-inactivated Foetal Calf Serum (HI-FCS), non-essential amino acids and tryptose phosphate broth. Culture medium was filter-sterilized through a 0.2 μm filter and stored at 4° C. Compounds were provided as 10 mM stocks in DMSO, diluted to 50 μM working stock to give final concentration of 5 μM on the test plate. Concentrated stocks were frozen at −20° C.
Prior to use in the screening assay, cell cultures were sub-passaged (6 days prior) to provide ˜90% confluent cells on Day 0 of screening assay. On Day 0 (assay set-up), the medium was removed from the stock culture flask and replaced with fresh medium. The cells were detached by scraping and cell density was calculated using an automated cell counter. The cells were then diluted at working density and aliquoted at 90 μl to each well of a Cell Carrier 384 well plate (Perkin Elmer). Cell plates were incubated at 26° C.
Control solution (DMSO-medium) was dispensed at 10 μl per well for “untreated” wells. Test solution (Drug-DMSO) was also dispensed at 10 μl (from working plate) per well for “treated” wells. The plates were incubated at 26° C., inside plastic wallet in incubator, for 7 days.
On Day 7, 25 μl of staining medium/dye (SYTO 11, Life Technologies) was added to each sample well and allowed to stain for 15 minutes in the dark. All the medium was removed from each sample well without disturbing the cells and replaced with 100 μl of fresh medium. Plates were imaged on the Operetta High Content Imaging system (Perkin Elmer) and analyzed using texture analysis through Harmony software (Perkin Elmer). The cell-based screen and analysis are described in detail in Clare et al. (2014) J Biomol Screen.

SMILES | EC50 [nM]
CS(=O)(=O)C1CCN(c2nc(NCc3ccccc3C(F)(F)F)c3cccnc3n2)CC1 [Example 243, 2-(4-(methylsulfonyl)piperidin-1-yl)-N-(2-(trifluoromethyl)benzyl)pyrido[2,3-d]pyrimidin-4-amine] | 100 to 1000
FC(F)(F)c1ncccc1CNc1nc(NC2CC2)nc2ncccc12 [Example 159, N^2-cyclopropyl-N^4-((2-(trifluoromethyl)pyridin-3-yl)methyl)pyrido[2,3-d]pyrimidine-2,4-diamine] | 1 to 10
CC(Nc1ncnc2cc(-c3ccccc3)sc12)c1ccccc1C(F)(F)F (stereo not shown) [Example 98, 6-phenyl-N-(1-(2-(trifluoromethyl)phenyl)ethyl)thieno[3,2-d]pyrimidin-4-amine] | 1000 to 100000
CC1(C)CN(c2nc(NCc3ccccc3C(F)(F)F)c3cccnc3n2)CCO1 [Example 247, 2-(2,2-dimethylmorpholino)-N-(2-(trifluoromethyl)benzyl)pyrido[2,3-d]pyrimidin-4-amine] | < 0.01
CC(C)Nc1nc(NCc2cccc(Cl)c2)c2sccc2n1 [Example 18, N^4-(3-chlorobenzyl)-N^2-isopropyithieno[3,2-d]pyrimidine-2,4-diamine] | 1000 to 100000
FC1(F)CCN(c2nc(NCc3cccnc3C(F)(F)F)c3cccnc3n2)CC1 [Example 197, 2-(4,4-difluoropiperidin-1-yl)-N-((2-(trifluoromethyl)pyridin-3-yl)methyl)pyrido[2,3-d]pyrimidin-4-amine] | 1 to 10
FC(F)(F)Oc1ccccc1CNc1ncnc2ccsc12 [Example 24, N-(2-(trifluoromethoxy)benzyl)thieno[3,2-d]pyrimidin-4-amine] | 100 to 1000
C[C@@H]1COCCN1c1nc(N2CCC2c2cccnc2C(F)(F)F)c2cccnc2n1 (stereo partly drawn) [Example 288, (3R)-3-methyl-4-(4-(2-(2-(trifluoromethyl)pyridin-3-yl)azetidin-1-yl)pyrido[2,3-d]pyrimidin-2-yl)morpholine] | 1 to 10
CS(=O)(=O)c1ccccc1CNc1ncnc2ccsc12 [Example 97, N-(2-(methylsulfonyl)benzyl)thieno[3,2-d]pyrimidin-4-amine] | 100 to 1000
FC(F)(F)c1ncccc1CNc1nc(N2CCOC3(CC3)C2)nc2ncccc12 [Example 256, 2-(4-oxa-7-azaspiro[2.5]octan-7-yl)-N-((2-(trifluoromethyl)pyridin-3-yl)methyl)pyrido[2,3-d]pyrimidin-4-amine] | < 0.01
CC1(C)CCN(c2nc(NCc3cccnc3C(F)(F)F)c3cccnc3n2)CC1 [Example 233, 2-(4,4-dimethyipiperidin-1-yl)-N-((2-(trifluoromethyl)pyridin-3-yl)methyl)pyrido[2,3-d]pyrimidin-4-amine] | 10 to 100
FC(F)(F)c1ncccc1CNc1nc(CN2CCC(Cl)CC2)nc2ncccc12 [Example 227, 2-((4-chloropiperidin-1-yl)methyl)-N-((2-(trifluoromethyl)pyridin-3-yl)methyl)pyrido[2,3-d]pyrimidin-4-amine] | 100 to 1000
CC(C)Nc1nc(NCc2c(F)cccc2Cl)c2sccc2n1 [Example 30, N^4-(2-chloro-6-fluorobenzyl)-N^2-isopropylthieno[3,2-d]pyrimidine-2,4-diamine] | 100 to 1000
FC(F)C1CN(c2nc(NCc3ccccc3C(F)(F)F)c3cccnc3n2)CCO1 (stereo not shown) [Example 284, 2-(2-(difluoromethyl)morpholino)-N-(2-(trifluoromethyl)benzyl)pyrido[2,3-d]pyrimidin-4-amine] | < 0.01
FC(F)(F)OCC1CCCN1c1nc(NCc2cccnc2C(F)(F)F)c2cccnc2n1 (stereo not shown) [Example 299, 2-(2-((trifluoromethoxy)methyl)pyrrolidin-1-yl)-N-((2-(trifluoromethyl)pyridin-3-yl)methyl)pyrido[2,3-d]pyrimidin-4-amine] | < 0.01
CN(Cc1ccccc1C(F)(F)F)c1ncnc2ccsc12 [Example 44, N-methyl-N-(2-(trifluoromethyl)benzyl)thieno[3,2-d]pyrimidin-4-amine] | 10 to 100
CC(Nc1ncnc2cc(Cl)sc12)c1ccccc1C(F)(F)F (stereo not shown) [Example 101] | 1000 to 100000
CC(C)N(C)c1nc(NCc2cccnc2C(F)(F)F)c2ccccc2n1 [Example 176, N^2-isopropyl-N^2-methyl-N^4-((2-(trifluoromethyl)pyridin-3-yl)methyl)quinazoline-2,4-diamine] | 100 to 1000
FC1(F)CN(c2nc(NCc3cccnc3C(F)(F)F)c3cccnc3n2)C1 [Example 201, 2-(3,3-difluoroazetidin-1-yl)-N-((2-(trifluoromethyl)pyridin-3-yl)methyl)pyrido[2,3-d]pyrimidin-4-amine] | 10 to 100

SMILES | EC50 [nM]
FC1(F)CCN(c2nc(N3CCC3c3cccnc3C(F)(F)F)c3cccnc3n2)C1 (stereo not shown) [Example 220, 2-(3,3-difluoropyrrolidin-1-yl)-4-(2-(2-(trifluoromethyl)pyridin-3-yl)azetidin-1-yl)pyrido[2,3-d]pyrimidine] | 0.01 to 1
COc1ccc(CNc2nc(NC(C)C)nc3ccsc23)cc1 [Example 131, N^2-isopropyl-N^4-(4-methoxybenzyl)thieno[3,2-d]pyrimidine-2,4-diamine] | 1000 to 100000
Cc1nc(NCc2ccccc2C(F)(F)F)c2sccc2n1 [Example 55, 2-methyl-N-(2-(trifluoromethyl)benzyl)thieno[3,2-d]pyrimidin-4-amine] | 10 to 100
FC(F)(F)OC1CCN(c2nc(NCc3cccnc3C(F)(F)F)c3cccnc3n2)C1 (stereo not shown) [Example 297, 2-(3-(trifluoromethoxy)pyrrolidin-1-yl)-N-((2-(trifluoromethyl)pyridin-3-yl)methyl)pyrido[2,3-d]pyrimidin-4-amine] | < 0.01
CC1COCCN1c1nc(N2CCC2c2cccnc2C(F)(F)F)c2cccnc2n1 (stereo not shown) [Example 219, 3-methyl-4-(4-(2-(2-(trifluoromethyl)pyridin-3-yl)azetidin-1-yl)pyrido[2,3-d]pyrimidin-2-yl)morpholine] | 1 to 10
CC1COCCN1c1nc(NCc2ccccc2C(F)(F)F)c2cncnc2n1 (stereo not shown) [Example 307, 2-(3-methylmorpholino)-N-(2-(trifluoromethyl)benzyl)pyrimido[4,5-d]pyrimidin-4-amine] | 1000 to 100000
C[C@@H]1COCCN1c1nc(NCc2ccccc2C(F)(F)F)c2cccnc2n1 [Example 209, (R)-2-(3-methylmorpholino)-N-(2-(trifluoromethyl)benzyl)pyrido[2,3-d]pyrimidin-4-amine] | 10 to 100
CC(C)Nc1nc(NCCc2ccccc2C(F)(F)F)c2sccc2n1 [Example 45, N^2-isopropyl-N^4-(2-(trifluoromethyl)phenethyl)thieno(3,2-d]pyrimidine-2,4-diamine] | 100 to 1000
FC1(F)CCN(c2nc(NCc3cccnc3C(F)(F)F)c3cccnc3n2)C1 [Example 194, 2-(3,3-difluoropyrrolidin-1-yl)-N-((2-(trifluoromethyl)pyridin-3-yl)methyl)pyrido[2,3-d]pyrimidin-4-amine] | 1 to 10
CC(C)(C)Nc1ncnc2ccsc12 [Example 78] | 1000 to 100000
Cc1csc2c(NC(C)c3ccccc3C(F)(F)F)ncnc12 (stereo not shown) [Example 105, 7-methyl-N-(1-(2-(trifluoromethyl)phenyl)ethyl)thieno[3,2-d]pyrimidin-4-amine] | 1000 to 100000
CC(C)Nc1nc(NCc2ccccc2S(C)(=O)=O)c2cccnc2n1 [Example 127, N^2-isopropyl-N^4-(2-(methylsulfonyl)benzyl)pyrido[2,3-d]pyrimidine-2,4-diamine] | 100 to 1000
Fc1ccc(CNc2ncnc3ccsc23)c(C(F)(F)F)c1 [Example 60, N-(4-fluoro-2-(trifluoromethyl)benzyl)thieno[3,2-d]pyrimidin-4-amine] | 10 to 100
CC(C)S(=O)(=O)c1nc(NCc2cccnc2C(F)(F)F)c2cccnc2n1 [Example 179, 2-(isopropylsulfonyl)-N-((2-(trifluoromethyl)pyridin-3-yl)methyl)pyrido[2,3-d]pyrimidin-4-amine] | 10 to 100
CC(C)N(C)c1nc(N2CCCCC2c2ccccc2C(F)(F)F)c2cccnc2n1 (stereo not shown) [Example 186, N-isopropyl-N-methyl-4-(2-(2-(trifluoromethyl)phenyl)piperidin-1-yl)pyrido[2,3-d]pyrimidin-2-amine] | 1000 to 100000
FC(F)(F)c1ccccc1C1CCN1c1nc(N2CC(C(F)(F)F)C2)nc2ncccc12 (stereo not shown) [Example 216, 2-(3-(trifluoromethyl)azetidin-1-yl)-4-(2-(2-(trifluoromethyl)phenyl)azetidin-1-yl)pyrido[2,3-d]pyrimidine] | 100 to 1000
C[C@H]1CN(c2nc(NCc3cccnc3C(F)(F)F)c3cccnc3n2)[C@@H](C)CO1 [Example 279, 2-((2S,5S)-2,5-dimethylmorpholino)-N-((2-(trifluoromethyl)pyridin-3-yl)methyl)pyrido[2,3-d]pyrimidin-4-amine] | 0.01 to 1
COc1ccccc1CNc1nc(NC(C)C)nc2ccccc12 [Example 139, N^2-isopropyl-N^4-(2-methoxybenzyl)quinazoline-2,4-diamine] | 100 to 1000
